Several values for one entry are separate records, joined by “and”; a condition that tells them apart may be missing. Equal entries are not always repeated. Toxic doses and inconclusive results are not listed.
System: BDF1 mice, P388 leukemia ip, median survival T/C
Experiment: NCI In Vivo Anticancer Drug Screen. Data for tumor model P388 Leukemia (intraperitoneal) in B6D2F1 (BDF1) mice
Conditions: endpoint: median survival time, higher = longer survival
Summary of the method: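 In tumour-bearing mice, survival after compound treatment is set against the vehicle group and given as a quotient.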

[1] = dose: 50.0 mg/kg/injection, schedule: Q04DX003 (ip), vehicle: saline
[2] = dose: 50.0 mg/kg/injection, schedule: Q01DX009 (ip), vehicle: saline with Tween-80
[3] = dose: 50.0 mg/kg/injection, schedule: Q04DX003 (ip), vehicle: saline with Tween-80
[4] = dose: 100.0 mg/kg/injection, schedule: Q01DX009 (ip), vehicle: saline with Tween-80
[5] = dose: 100.0 mg/kg/injection, schedule: Q04DX003 (ip), vehicle: saline with Tween-80
[6] = dose: 200.0 mg/kg/injection, schedule: Q01DX009 (ip), vehicle: saline with Tween-80
[7] = dose: 200.0 mg/kg/injection, schedule: Q04DX003 (ip), vehicle: saline with Tween-80
[8] = dose: 50.0 mg/kg/injection, schedule: Q01DX009 (ip), vehicle: other
[9] = dose: 100.0 mg/kg/injection, schedule: Q01DX009 (ip), vehicle: other
[10] = dose: 100.0 mg/kg/injection, schedule: Q04DX003 (ip), vehicle: saline
[11] = dose: 200.0 mg/kg/injection, schedule: Q04DX003 (ip), vehicle: saline

In the case of ClC(c1ccccc1)(c1ccccc1)c1ccccc1, the T/C (dose: 100.0 mg/kg/injection, schedule: Q04DX003 (ip), vehicle: other) is reported as 100 % of control, the T/C (dose: 200.0 mg/kg/injection, schedule: Q04DX003 (ip), vehicle: other) is reported as 108 % of control and the T/C (dose: 400.0 mg/kg/injection, schedule: Q04DX003 (ip), vehicle: other) is reported as 104 % of control.
In the case of N/C(=N\Cl)C(Cl)(Cl)Cl, the T/C (dose: 12.5 mg/kg/injection, schedule: Q04DX003 (ip), vehicle: saline) is reported as 109 % of control, the T/C (dose: 25.0 mg/kg/injection, schedule: Q01DX009 (ip), vehicle: saline) is reported as 150 % of control and the T/C (dose: 25.0 mg/kg/injection, schedule: Q04DX003 (ip), vehicle: saline) is reported as 118 % of control. For the same compound, the T/C (dose: 33.0 mg/kg/injection, schedule: Q04DX003 (ip), vehicle: saline) was 118 % of control, the T/C (dose: 37.5 mg/kg/injection, schedule: Q01DX009 (ip), vehicle: saline) was 118 % of control and the T/C [1] was 118 % of control. The T/C (dose: 75.0 mg/kg/injection, schedule: Q04DX003 (ip), vehicle: saline) was 118 % of control.
In the case of Cc1ccc(C(=O)NCCCOc2ccc(N)cc2Cl)cc1S(=O)(=O)F, the T/C (dose: 25.0 mg/kg/injection, schedule: Q01DX009 (ip), vehicle: saline with Tween-80) is reported as 102 % of control, the T/C [2] is reported as 111 % of control and the T/C [3] is reported as 100 % of control. For the same compound, the T/C [4] was 93 % of control, the T/C [5] was 92 % of control and the T/C [6] was 107 % of control. The T/C [7] was 92 % of control and the T/C (dose: 400.0 mg/kg/injection, schedule: Q04DX003 (ip), vehicle: saline with Tween-80) was 90 % of control.
For Fc1nc2nc(C(F)(F)F)[nH]c2nc1F, the T/C (dose: 10.0 mg/kg/injection, schedule: Q01DX009 (ip), vehicle: saline with Tween-80) was 104 % of control, the T/C (dose: 20.0 mg/kg/injection, schedule: Q01DX009 (ip), vehicle: saline with Tween-80) was 121 % of control and the T/C (dose: 25.0 mg/kg/injection, schedule: Q04DX003 (ip), vehicle: saline with Tween-80) was 105 % of control. For the same compound, the T/C (dose: 40.0 mg/kg/injection, schedule: Q01DX009 (ip), vehicle: saline with Tween-80) was 120 % of control, the T/C [3] was 99 % of control and the T/C (dose: 80.0 mg/kg/injection, schedule: Q01DX009 (ip), vehicle: saline with Tween-80) was 112 % of control. For the same compound, the T/C [5] was 90 % of control and 105 % of control and the T/C (dose: 160.0 mg/kg/injection, schedule: Q01DX009 (ip), vehicle: saline with Tween-80) was 112 % of control.
For C[C@]12C=CC(=O)C=C1CC[C@@H]1[C@@H]2CC[C@]2(C)OC(=O)CC[C@@H]12, the T/C [2] was 100 % of control, the T/C [4] was 86 % of control and the T/C [5] was 90 % of control. The T/C [6] was 90 % of control and the T/C [7] was 90 % of control.
With COc1ccc(OC)c(C(=O)C=C(C(F)(F)F)C(F)(F)F)c1 the T/C (dose: 33.0 mg/kg/injection, schedule: Q01DX009 (ip), vehicle: other) was 109 % of control, the T/C [8] was 113 % of control and the T/C (dose: 75.0 mg/kg/injection, schedule: Q01DX009 (ip), vehicle: other) was 122 % of control.
In the case of O=C(O)C(CCO)C(=O)C(F)(F)F (configuration not stated), the T/C (dose: 25.0 mg/kg/injection, schedule: Q01DX009 (ip), vehicle: other) is reported as 98 % of control, the T/C [8] is reported as 98 % of control and the T/C [9] is reported as 91 % of control.
CC(C)(C)OC(=O)N1Cc2cc3ccccc3nc2C1 was tested, and the T/C [3] was 100 % of control, the T/C [5] was 118 % of control and the T/C [7] was 109 % of control.
Cc1c2oc3c(C)ccc(C(=O)NC(C)Cc4ccccc4)c3nc-2c(C(=O)NC(C)Cc2ccccc2)c(N)c1=O (configuration not stated) was tested, and the T/C (dose: 100.0 mg/kg/injection, schedule: Q04DX002 (ip), vehicle: DMSO) was 87 % of control and the T/C (dose: 200.0 mg/kg/injection, schedule: Q04DX002 (ip), vehicle: DMSO) was 92 % of control.
With CCCCCCCCC(=O)NCc1ccc(OC)cc1 the T/C (dose: 100.0 mg/kg/injection, schedule: Q01DX001 (ip), vehicle: other) was 91 % of control, the T/C (dose: 200.0 mg/kg/injection, schedule: Q01DX001 (ip), vehicle: other) was 100 % of control and the T/C (dose: 400.0 mg/kg/injection, schedule: Q01DX001 (ip), vehicle: other) was 91 % of control.
For COc1cc2ccc3c(c2cc1OC)CNCC3, the T/C [1] was 104 % of control, the T/C [10] was 109 % of control and the T/C [11] was 109 % of control.
OC(C1CCCCC1)(C1CCCCC1)C1CCCCC1 was tested, and the T/C [9] was 104 % of control, the T/C (dose: 100.0 mg/kg/injection, schedule: Q04DX003 (ip), vehicle: Klucel (hydroxypropylcellulose) (HPC)) was 91 % of control and the T/C (dose: 200.0 mg/kg/injection, schedule: Q01DX009 (ip), vehicle: other) was 100 % of control. For the same compound, the T/C (dose: 200.0 mg/kg/injection, schedule: Q04DX003 (ip), vehicle: Klucel (hydroxypropylcellulose) (HPC)) was 100 % of control, the T/C (dose: 400.0 mg/kg/injection, schedule: Q01DX009 (ip), vehicle: other) was 109 % of control and the T/C (dose: 400.0 mg/kg/injection, schedule: Q04DX003 (ip), vehicle: Klucel (hydroxypropylcellulose) (HPC)) was 91 % of control.
With CC([NH-])C(=O)O.CC([NH-])C(=O)O.CC([NH-])C(=O)O.[Co+3] (configuration not stated) the T/C (dose: 25.0 mg/kg/injection, schedule: Q01DX009 (ip), vehicle: water) was 103 % of control, the T/C (dose: 50.0 mg/kg/injection, schedule: Q01DX009 (ip), vehicle: water) was 92 % of control and the T/C (dose: 100.0 mg/kg/injection, schedule: Q01DX009 (ip), vehicle: water) was 92 % of control. The T/C (dose: 100.0 mg/kg/injection, schedule: Q04DX003 (ip), vehicle: water) was 116 % of control and the T/C (dose: 200.0 mg/kg/injection, schedule: Q04DX003 (ip), vehicle: water) was 90 % of control.
For CS(=O)CC(O)(c1ccccc1)c1cccs1 (configuration not stated), the T/C [2] was 100 % of control, the T/C [4] was 93 % of control and the T/C [6] was 100 % of control.
For O=C(c1ccccc1)C(O)(CC(c1ccccc1)[P+](c1ccccc1)(c1ccccc1)c1ccccc1)c1ccccc1 (configuration not stated), the T/C (dose: 0.87 mg/kg/injection, schedule: Q01DX009 (ip), vehicle: saline) was 108 % of control, the T/C (dose: 3.12 mg/kg/injection, schedule: Q01DX009 (ip), vehicle: Klucel (hydroxypropylcellulose) (HPC)) was 122 % of control and the T/C (dose: 3.5 mg/kg/injection, schedule: Q01DX009 (ip), vehicle: saline) was 120 % of control. For the same compound, the T/C (dose: 6.25 mg/kg/injection, schedule: Q01DX009 (ip), vehicle: Klucel (hydroxypropylcellulose) (HPC)) was 113 % of control, the T/C (dose: 6.25 mg/kg/injection, schedule: Q04DX003 (ip), vehicle: saline with Tween-80) was 109 % of control and the T/C (dose: 12.5 mg/kg/injection, schedule: Q04DX003 (ip), vehicle: Klucel (hydroxypropylcellulose) (HPC)) was 104 % of control. For the same compound, the T/C (dose: 12.5 mg/kg/injection, schedule: Q04DX003 (ip), vehicle: saline with Tween-80) was 118 % of control.
In the case of Cc1ccc(NC(=O)N(CCCl)N=O)cc1C, the T/C (dose: 6.6 mg/kg/injection, schedule: Q04DX003 (ip), vehicle: saline with Tween-80) is reported as 159 % of control, the T/C (dose: 10.0 mg/kg/injection, schedule: Q04DX003 (ip), vehicle: saline with Tween-80) is reported as 209 % of control and the T/C (dose: 15.0 mg/kg/injection, schedule: Q04DX003 (ip), vehicle: saline with Tween-80) is reported as 204 % of control.
With O=C(Cn1cc(F)c(=O)[nH]c1=O)c1cccs1 the T/C (dose: 100.0 mg/kg/injection, schedule: Q01DX009 (ip), vehicle: saline) was 100 % of control, the T/C [10] was 95 % of control and the T/C (dose: 200.0 mg/kg/injection, schedule: Q01DX009 (ip), vehicle: saline) was 100 % of control. For the same compound, the T/C [11] was 90 % of control, the T/C (dose: 400.0 mg/kg/injection, schedule: Q01DX009 (ip), vehicle: saline) was 95 % of control and the T/C (dose: 400.0 mg/kg/injection, schedule: Q04DX003 (ip), vehicle: saline) was 90 % of control.
N#CCC(=O)N1Cc2cc3ccccc3nc2C1 was tested, and the T/C (dose: 50.0 mg/kg/injection, schedule: Q01DX001 (ip), vehicle: saline sonified) was 100 % of control, the T/C (dose: 100.0 mg/kg/injection, schedule: Q01DX001 (ip), vehicle: saline sonified) was 100 % of control and the T/C (dose: 200.0 mg/kg/injection, schedule: Q01DX001 (ip), vehicle: saline sonified) was 100 % of control.
In the case of Cc1ccc(NC(=O)NCC2(C)CC(NC(=O)Nc3ccc(C)cc3)CC(C)(C)C2)cc1 (configuration not stated), the T/C (dose: 12.5 mg/kg/injection, schedule: Q01DX009 (ip), vehicle: Klucel (hydroxypropylcellulose) (HPC)) is reported as 100 % of control, the T/C (dose: 25.0 mg/kg/injection, schedule: Q01DX009 (ip), vehicle: Klucel (hydroxypropylcellulose) (HPC)) is reported as 100 % of control and the T/C (dose: 50.0 mg/kg/injection, schedule: Q01DX009 (ip), vehicle: Klucel (hydroxypropylcellulose) (HPC)) is reported as 100 % of control. The T/C (dose: 75.0 mg/kg/injection, schedule: Q01DX009 (ip), vehicle: Klucel (hydroxypropylcellulose) (HPC)) was 90 % of control, the T/C (dose: 115.0 mg/kg/injection, schedule: Q01DX009 (ip), vehicle: Klucel (hydroxypropylcellulose) (HPC)) was 90 % of control and the T/C (dose: 170.0 mg/kg/injection, schedule: Q01DX009 (ip), vehicle: Klucel (hydroxypropylcellulose) (HPC)) was 90 % of control.

Source: PubChem BioAssay AID328 (DTP/NCI, 2004)
